According to US12559529B2, “NPY2 receptor agonists” (Boehringer Ingelheim International GmbH, priority 2019, dated 2026):

Columns and labels:
[1] = molecular target: T1, Human Neuropeptide Y2 Receptor (Homo sapiens, UniProt P49146); assay: Radioligand binding competition assay (RLB); settings: Table 3; human 125I-PYY (1-36) 0.02 nM, Y2 receptor membranes; read-out: Ki
T1 construct: purchased CHEMICON HTS066M
T1 sequence (P49146 1-381): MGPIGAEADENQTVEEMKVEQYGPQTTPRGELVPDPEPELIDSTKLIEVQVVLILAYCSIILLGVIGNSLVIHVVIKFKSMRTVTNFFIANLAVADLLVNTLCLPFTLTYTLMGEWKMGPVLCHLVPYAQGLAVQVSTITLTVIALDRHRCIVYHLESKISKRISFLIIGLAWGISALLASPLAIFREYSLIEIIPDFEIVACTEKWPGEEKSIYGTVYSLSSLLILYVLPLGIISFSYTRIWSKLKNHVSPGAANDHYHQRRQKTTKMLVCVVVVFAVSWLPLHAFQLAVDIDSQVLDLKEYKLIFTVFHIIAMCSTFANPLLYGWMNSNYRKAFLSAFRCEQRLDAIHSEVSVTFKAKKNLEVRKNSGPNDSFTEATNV
In short: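 Competition binding on human Y2 receptor membranes, 0.5 μg protein/well, in 50 mM HEPES, 5 mM MgCl2, 1 mM CaCl2, pH 7.4, 0.2% ovalbumin; peptides diluted from 1 mM DMSO stocks.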

normal NMRI mice = assay: Effect on acute food intake in normal NMRI mice; format: in vivo; settings: male NMRI mice, 10 nmol/kg subcutaneously once
In short: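 A single 10 nmol/kg s.c. peptide dose was given 1 h before lights-off to male NMRI mice fasted from 6 h before the night phase (n=7-8). Intake was recorded continuously by microchip-identified HM-2 feeding channels. Values are normalized to vehicle controls (50 mM phosphate buffer pH7 with 5% Mannitol).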

Row | Ki [1] [nM] | SMILES | Acute Food Intake 24 h [% vehicle] (normal NMRI mice)
1 | 0.99 | CC(C)CC(=O)N[C@@H](C)C(=O)N1CCC[C@H]1C(=O)N[C@@H](CCC(=O)O)C(=O)N[C@@H](CCCCNC(=O)COCCOCCNC(=O)COCCOCCNC(=O)CC[C@H](NC(=O)CCCCCCCCCCCCCCCCC(=O)O)C(=O)O)C(=O)N1CCC[C@H]1C(=O)N[C@@H](CCC(=O)O)C(=O)N[C@@H](CCC(=O)O)C(=O)N[C@@H](CC(=O)O)C(=O)N[C@@H](C)C(=O)N[C@@H](CO)C(=O)N1CCC[C@H]1C(=O)N[C@@H](CCC(=O)O)C(=O)N[C@@H](CCC(=O)O)C(=O)N[C@@H](CC(C)C)C(=O)N[C@@H](CCC(N)=O)C(=O)N[C@@H](CCCNC(=N)N)C(=O)N[C@@H](Cc1ccc(O)cc1)C(=O)N[C@@H](Cc1ccc(O)cc1)C(=O)N[C@H](C(=O)N[C@@H](CCC(=O)O)C(=O)N[C@@H](CC(C)C)C(=O)N[C@@H](CCCNC(=N)N)C(=O)N[C@@H](Cc1c[nH]cn1)C(=O)N[C@@H](Cc1ccc(O)cc1)C(=O)N[C@@H](Cc1ccc(O)cc1)C(=O)N[C@@H](CC(N)=O)C(=O)N[C@@H](Cc1c[nH]c2ccccc12)C(=O)N[C@@H](CC(C)C)C(=O)N[C@H](C(=O)N[C@@H](CCCNC(=N)N)C(=O)N[C@@H](CCC(N)=O)C(=O)N[C@@H](CCCNC(=N)N)C(=O)N[C@@H](Cc1ccc(O)cc1)C(N)=O)[C@@H](C)O)C(C)C [Compound 108, N{alpha-4}-(3-methylbutanoyl)-N{epsilon-7}-[2-(2-{2-[2-(2-{2-[(4S)-4-carboxy-4-(17-carboxyheptadecanamido)butanamido]ethoxy}ethoxy)acetamido]ethoxy}ethoxy)acetamido]-[4A,7K,9E,18Q,22V,23E,28Y,30W,31L]hPYY (4-36)] | 47
2 | 0.77 | CC[C@H](C)[C@H](NC(=O)[C@H](CCC(=O)O)NC(=O)[C@H](CCC(=O)O)NC(=O)[C@@H]1CCCN1C(=O)[C@H](CCC(=O)O)NC(=O)[C@H](C)NC(=O)[C@H](CC(=O)O)NC(=O)[C@H](CCC(=O)O)NC(=O)[C@H](CCC(=O)O)NC(=O)[C@@H]1CCCN1C(=O)[C@H](CCCCNC(=O)COCCOCCNC(=O)COCCOCCNC(=O)CC[C@H](NC(=O)CCCCCCCCCCCCCCCCC(=O)O)C(=O)O)NC(=O)[C@H](CCC(=O)O)NC(=O)[C@@H]1CCCN1C(=O)[C@H](C)NC(=O)CC(C)C)C(=O)N[C@@H](CCC(N)=O)C(=O)N[C@@H](CCCNC(=N)N)C(=O)N[C@@H](Cc1ccc(O)cc1)C(=O)N[C@@H](Cc1ccc(O)cc1)C(=O)N[C@H](C(=O)N[C@@H](CO)C(=O)N[C@@H](CC(C)C)C(=O)N[C@@H](CCCNC(=N)N)C(=O)N[C@@H](Cc1c[nH]cn1)C(=O)N[C@@H](Cc1ccc(O)cc1)C(=O)N[C@@H](Cc1ccc(O)cc1)C(=O)N[C@@H](CC(N)=O)C(=O)N[C@@H](Cc1c[nH]c2ccccc12)C(=O)N[C@@H](CC(C)C)C(=O)N[C@H](C(=O)N[C@@H](CCCNC(=N)N)C(=O)N[C@@H](CCC(N)=O)C(=O)N[C@@H](CCCNC(=N)N)C(=O)N[C@@H](Cc1ccc(O)cc1)C(N)=O)[C@@H](C)O)C(C)C [Compound 110, N{alpha-4}-(3-methylbutanoyl)-N{epsilon-7}-[2-(2-{2-[2-(2-{2-[(4S)-4-carboxy-4-(17-carboxyheptadecanamido)butanamido]ethoxy}ethoxy)acetamido]ethoxy}ethoxy)acetamido]-[4A,7K,9E,13E,17I,18Q,22V,28Y,30W,31L]hPYY (4-36)] | 67
3 | 1.94 | CC(C)CC(=O)N[C@@H](C)C(=O)N1CCC[C@H]1C(=O)N[C@@H](CCC(=O)O)C(=O)N[C@@H](CCCCNC(=O)COCCOCCNC(=O)COCCOCCNC(=O)CC[C@H](NC(=O)CCCCCCCCCCCCCCCCC(=O)O)C(=O)O)C(=O)N1CCC[C@H]1C(=O)N[C@@H](CCC(=O)O)C(=O)N[C@@H](CCC(=O)O)C(=O)N[C@@H](CCC(=O)O)C(=O)N[C@@H](C)C(=O)N[C@@H](CO)C(=O)N1CCC[C@H]1C(=O)N[C@@H](CCC(=O)O)C(=O)N[C@@H](C)C(=O)N[C@@H](CC(C)C)C(=O)N[C@@H](CCC(N)=O)C(=O)N[C@@H](CCCNC(=N)N)C(=O)N[C@@H](Cc1ccc(O)cc1)C(=O)N[C@@H](Cc1ccc(O)cc1)C(=O)N[C@H](C(=O)N[C@@H](CO)C(=O)N[C@@H](CC(C)C)C(=O)N[C@@H](CCCNC(=N)N)C(=O)N[C@@H](Cc1c[nH]cn1)C(=O)N[C@@H](Cc1ccc(O)cc1)C(=O)N[C@@H](Cc1ccc(O)cc1)C(=O)N[C@@H](CC(N)=O)C(=O)N[C@@H](Cc1c[nH]c2ccccc12)C(=O)N[C@@H](CC(C)C)C(=O)N[C@H](C(=O)N[C@@H](CCCNC(=N)N)C(=O)N[C@@H](CCC(N)=O)C(=O)N[C@@H](CCCNC(=N)N)C(=O)N[C@@H](Cc1ccc(O)cc1)C(N)=O)[C@@H](C)O)C(C)C [Compound 115, N{alpha-4}-(3-methylbutanoyl)-N{epsilon-7}-[2-(2-{2-[2-(2-{2-[(4S)-4-carboxy-4-(17-carboxyheptadecanamido)butanamido]ethoxy}ethoxy)acetamido]ethoxy}ethoxy)acetamido]-[4A,7K,9E,11E,16A,18Q,22V,28Y,30W,31L]hPYY (4-36)] | 49
4 | 0.5 | CC[C@H](C)[C@H](NC(=O)[C@H](CCC(=O)O)NC(=O)[C@H](CCC(=O)O)NC(=O)[C@@H]1CCCN1C(=O)[C@H](C)NC(=O)[C@H](C)NC(=O)[C@H](CC(=O)O)NC(=O)[C@H](CCC(=O)O)NC(=O)[C@H](CCC(=O)O)NC(=O)[C@@H]1CCCN1C(=O)[C@H](CCCCNC(=O)COCCOCCNC(=O)COCCOCCNC(=O)CC[C@H](NC(=O)CCCCCCCCCCCCCCCCC(=O)O)C(=O)O)NC(=O)[C@H](CCC(=O)O)NC(=O)[C@@H]1CCCN1C(=O)[C@H](C)NC(=O)CC(C)C)C(=O)N[C@@H](CCC(N)=O)C(=O)N[C@@H](CCCNC(=N)N)C(=O)N[C@@H](Cc1ccc(O)cc1)C(=O)N[C@@H](Cc1ccc(O)cc1)C(=O)N[C@H](C(=O)N[C@@H](CO)C(=O)N[C@@H](CC(C)C)C(=O)N[C@@H](CCCNC(=N)N)C(=O)N[C@@H](Cc1c[nH]cn1)C(=O)N[C@@H](Cc1ccc(O)cc1)C(=O)N[C@@H](Cc1ccc(O)cc1)C(=O)N[C@@H](CC(N)=O)C(=O)N[C@@H](Cc1c[nH]c2ccccc12)C(=O)N[C@@H](CC(C)C)C(=O)N[C@H](C(=O)N[C@@H](CCCNC(=N)N)C(=O)N[C@@H](CCC(N)=O)C(=O)N[C@@H](CCCNC(=N)N)C(=O)N[C@@H](Cc1ccc(O)cc1)C(N)=O)[C@@H](C)O)C(C)C [Compound 124, N{alpha-4}-(3-methylbutanoyl)-N{epsilon-7}-[2-(2-{2-[2-(2-{2-[(4S)-4-carboxy-4-(17-carboxyheptadecanamido)butanamido]ethoxy}ethoxy)acetamido]ethoxy}ethoxy)acetamido]-[4A,7K,9E,13A,17I,18Q,22V,28Y,30W,31L]hPYY (4-36)] | 58
